Data: patent US6849645B2, “Method of increased bioavailability of nutrients and pharmaceutical preparations with tetrahydropiperine and its analogues and derivatives” (priority 2000, dated 2005)
Entries after “also recorded” stand apart in the source; their conditions may differ.

Key:
[1] = In vitro DPPH radical scavenging method (THC with or without THP); format: biochemical
Protocol: The bioenhancing potential of THP on the free-radical scavenging properties of topically applied THC was evaluated. In this in vitro DPPH radical scavenging method, the ability of an anti-oxidant to bind and inactivate the 1,1 diphenyl-2-picrylhydrazyl radical, or DPPH, was measured. DPPH is considered an example of a very stable free radical. The control sample contained 0.01% of THC while active samples contained 0.01% of THC with THP concentrations ranging from 0.1%-0.0001%. Additionally, controls containing various concentrations of THP alone were also tested for DPPH binding.

[2] = tested on: tobacco cut worm, Spodoptera litura F.; assay: whole plant or invertebrate; conditions: 48 hours
Protocol: The tetrahydropiperine was tested against tobacco cut worm, Spodoptera litura F. to determine its possible increased kill rate when used with Fenvalerate—a synthetic pyrethroid.
• a. Preparation of test solution—0.5 g of the test product was dissolved in 1 ml of Ethanol and made up to 100 ml in standard volumetric flask using suitable emulsifier. This solution contains 5000 ppm a.i. (0.5 percent). Further, serial dilution was made to get 0.25, 0.125 and 0.0625% of the test product. To each of these test solutions, Fenvalerate was added to get 250 ppm of Fenvalerate a.i. in the final volume. For comparison 0.5 percent of Tetrahydropiperine, Ethanol 1.0 percent solution and 250 ppm a.i. of Fenvalerate was used. • b. Bioassay—Laboratory reared 7 day old larvae of tobacco cut worm, Spodoptera litura were used in the experiment. After a series of preliminary tests the concentrations chosen for the experiment were 0.5, 0.25, 0.125 and 0.0625 percent tetrahydropiperine. Fresh castor leaves were dipped for 30 seconds in above concentrations of test and standard compounds and blank solutions. After proper drying, the treated leaves were transferred to plastic containers. To each container 5 larvae were released. This was repeated four times so as to have 20 larvae for each concentration. Larvae in control set were fed with leaves dipped in water. Observations were recorded for larval mortality after 48 hours of exposure. Results

Earthworms = assay: Albendazole induced anthelmintic activity on earthworms (paralysis and death); format: in vivo, earthworm
Protocol: An experiment to see how tetrahydropiperine enhances the skin permeability of anthelmintic drugs such as albendazole on intestinal worms was conducted. However, as a preliminary study towards this, tests on earthworms were conducted.
Earthworms were obtained from the Al Ameen College of Pharmacy, Bangalore. Albendazole (Zentel) was obtained from Smith Kline Beecham Pharmaceuticals, Bangalore. The aqueous test solution contained tetrahydropiperine (Tetraperine™, A proprietary product of Sabinsa Corporation, USA) of 0.1% and 0.2% w/v suspended in 0.25% w/v sodium carboxy methyl cellulose.
1. Effect of Albendazole: Earth worms of similar length and weight were divided into three groups of six worms each. […] The time of onset of paralysis was noted and the death of the worms were observed and recorded as above.

[3] = Primary skin irritation potential, Draize's method; format: in vivo, New Zealand White rabbits
Protocol: The study was designed to determine the primary skin irritation potential on New Zealand White rabbits following the guidelines provided by Gaitonde Committee, CIB, New Delhi, India
New Zealand White, healthy, adult male and female rabbits, each group comprising of 3 randomly selected animals of each sex.
0.5 ml of the test substance was applied to dehaired intact and abraded skin sites of each test animal. Care was taken to note that the abrasions penetrated the Stratum corneum, but not the dermis. A gauze patch was secured over each treated area using tape. The patch and unabsorbed test substance were removed after 24 hours. Each site of application was carefully observed and the reaction evaluated according to Draize's method at 24 and 72 hours.

[4] = 48 hour skin patch test for irritation in humans; format: in vivo, human
Protocol: In another aspect of the present invention, a study was conducted to determine whether a topical composition containing THP (98% purity), at a level of 0.01% and 0.1% by weight, which is preferred topical dose range for the compound, would produce symptoms of topical irritation. A skin patch test using THP in a petrolatum vehicle was conducted on 50 healthy volunteers for 48 hr with reading of the results after 48 hr and 72 hr. […] The irritation score was reported by the supervising physician, a practicing dermatologist, as 0. […] Based on previous experience with the parent compound, THP should not irritate the stomach mucosa at dose level of up to 50 mg per os in an adult healthy volunteer.
The 48 hour Repeat Insult Patch Test was used to evaluate skin irritation potential of the test compound.
50 Male or female subjects aged between 18 and 87 years participated in the study. 5 male and 41 female subjects completed the study. The subjects were in good health and using no medications from 30 days prior to the commencement of the study.
The test material was applied occlusively, 0.1% w/w diluted in petrolatum. 0.2 g or 0.2 cc of the test material was dispensed into the skin of the upper back. Paper tape such as 3M Micropore™ or Kendall Tenderskin™ was used for fixation after preparation of the surrounding skin with an adhesion enhancer such as Mastitol™. The subject was instructed to avoid exposure to water or to direct sunlight during the 48 hour observation period. The tape was removed at the test facility at the end of the exposure period and evaluated by trained personnel under the supervision of the principal investigator.
Reactions were scored based on the appearance of erythema or edema immediately following removal of the patch and again at 24 hours following removal. Subjects were instructed to report any delayed reactions occurring after the final reading.

[5] = Solubility (specification of THP); format: physicochemical
[6] = Albendazole 0.2% + THP 0.1% vs Albendazole 0.2%
[7] = Albendazole 0.2% + THP 0.1% w/v
[8] = Albendazole 0.2% + THP 0.2% vs Albendazole 0.2%
[9] = Albendazole 0.2% + THP 0.2% w/v
[10] = THP 0.01% and 0.1% by weight in petrolatum, 48 hr patch, read after 48 hr and 72 hr

## O=C(CCCCc1ccc2c(c1)OCO2)N1CCCCC1 [Tetrahydropiperine, 1-[5-(1,3-Benzodioxol-5 yl)-1-oxo-pentanoyl]-Piperidine]
[1]; 0.01% THC with THP 0.1%-0.0001%
  enhancement of the antioxidant properties of THC as compared to THC alone: up to 30%
[1]; 0.01% THC with THP at highest dilution of 0.0001%
  THC bioenhancing activity: still displayed some beneficial THC bioenhancing activity
[1]; THP alone, various concentrations
  anti-oxidant properties (DPPH binding): did not show any significant anti-oxidant properties
[2]; Tetrahydropiperine 0.0625% + 250 ppm a.i. Fenvalerate
  PERCENT MORTALITY (Mean of 4 replications): 50%
[2]; Tetrahydropiperine 0.0625% + 250 ppm a.i. Fenvalerate, listed as tetrahydropiperine
  PERCENT MORTALITY (Mean of 4 replications): did not enhance the activity
[2]; Tetrahydropiperine 0.125% + 250 ppm a.i. Fenvalerate
  PERCENT MORTALITY (Mean of 4 replications): 65%
[2]; Tetrahydropiperine 0.5% + 250 ppm a.i. Fenvalerate
  PERCENT MORTALITY (Mean of 4 replications): 100%
[2]; Tetrahydropiperine 0.5% alone
  PERCENT MORTALITY (Mean of 4 replications): 0%
[2]; Tetrahydropiperine 0.5% alone, listed as tetrahydropiperine
  PERCENT MORTALITY (Mean of 4 replications): did not show any activity
[2]; Tetrahydropiperine […] + 250 ppm a.i. Fenvalerate
  PERCENT MORTALITY (Mean of 4 replications): 85%
Earthworms; [6]
  % Reduction in time for Death: 11.03%
  % Reduction in time for Paralysis: 12.81%
Earthworms; [7]
  Time taken in minutes (Mean ± SEM), Death: 98.16 ± 5.19 min
  Time taken in minutes (Mean ± SEM), Paralysis: 86.31 ± 4.3 min
Earthworms; [8]
  % Reduction in time for Death: 32.32%
  % Reduction in time for Paralysis: 37.36%
Earthworms; [9]
  Time taken in minutes (Mean ± SEM), Death: 74.64 ± 2.98 min
  Time taken in minutes (Mean ± SEM), Paralysis: 62.01 ± 3.33 min
Earthworms; Albendazole 0.2% co-administered with tetrahydropiperine 0.2%
  change in time taken for paralysis and death: showed a reduction
Earthworms; THP 0.1% alone
  % Reduction in time for Death: Nil
  % Reduction in time for Paralysis: Nil
Earthworms; Tetrahydropiperine 0.1% with albendazole 0.2%, unpaired t test
  change in time of paralysis and death compared with standard concentration: no change
[3]; 0.5 ml on intact and abraded skin sites, patch 24 hours, evaluated at 24 and 72 hours
  skin reaction (erythema, edema, irritation): No erythema or edema; also recorded: did not cause any irritation
[3]; intact and abraded skin, Draize's method, 24 and 72 hours
  primary skin irritation score: zero
[4]; 0.1% w/w in petrolatum, occlusive, 48 hours exposure
  skin reaction (erythema, edema, primary contact irritation): No erythema or edema reactions; also recorded: appears not to produce primary (contact) irritation
[4]; [10]
  irritation score: 0
  skin irritation: Neither dose caused skin irritation
[5]; chloroform
  Solubility: Soluble
[5]; methanol
  Solubility: Soluble
[5]; water
  Solubility: insoluble
